Measurements taken from PubChem BioAssay (NCI).
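Protocol summary: plate cells (96-well), add compound at 5 concentrations, incubate 48 h, interpolate endpoints linearly. GI50: concentration for 50% inhibition of growth. TGI denotes the concentration required for complete inhibition of growth.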

What was measured:
Assay in all cases: NCI-60 cell line screen, 48 h
SK-MEL-2 melanoma = test system: SK-MEL-2 melanoma
HCT-116 colon = test system: HCT-116 colon
SN12C renal = test system: SN12C renal
LOX IMVI melanoma = test system: LOX IMVI melanoma
A549 NSCLC = test system: A549 NSCLC
HOP-62 NSCLC = test system: HOP-62 NSCLC
SNB-75 CNS = test system: SNB-75 CNS
UACC-257 melanoma = test system: UACC-257 melanoma
COLO 205 colon = test system: COLO 205 colon
HCC-2998 colon = test system: HCC-2998 colon

Structure (SMILES)	GI50 (SK-MEL-2 melanoma)	TGI (SK-MEL-2 melanoma)	GI50 (HCT-116 colon)	TGI (HCT-116 colon)	GI50 (SN12C renal)	TGI (SN12C renal)	GI50 (LOX IMVI melanoma)	TGI (LOX IMVI melanoma)	GI50 (A549 NSCLC)	TGI (A549 NSCLC)	GI50 (HOP-62 NSCLC)	TGI (HOP-62 NSCLC)	GI50 (SNB-75 CNS)	TGI (SNB-75 CNS)	GI50 (UACC-257 melanoma)	TGI (UACC-257 melanoma)	GI50 (COLO 205 colon)	TGI (COLO 205 colon)	GI50 (HCC-2998 colon)	TGI (HCC-2998 colon)
CCOC(=O)C1=C(C)N(Cc2ccc(Cl)cc2Cl)[C@]2(C#N)C(O)=C(Cl)C(Cl)=C(O)[C@]12C#N	> 100 µM	> 100 µM	34.7 µM	> 100 µM	73.9 µM	> 100 µM	17.5 µM	35 µM	> 100 µM	> 100 µM	> 100 µM	> 100 µM	32.2 µM	86.4 µM	> 100 µM	> 100 µM	> 100 µM	> 100 µM		
O=c1c2cccc3cccc(c4n1CCCN=4)c32		> 100 µM		> 100 µM		> 100 µM		53.5 µM		> 100 µM		> 100 µM		> 100 µM		> 100 µM		> 100 µM		
CN(C)CCS(=O)(=O)Nc1cc(-c2ccc3ncnc(Nc4ccc(F)c(Cl)c4)c3c2)cnc1Cl	0.715 µM	2.74 µM	0.829 µM	6.43 µM	0.624 µM	> 100 µM			0.803 µM	3.26 µM	0.473 µM	> 100 µM	0.282 µM	> 100 µM	0.775 µM	6.81 µM	0.748 µM	2.22 µM	1.05 µM	3.04 µM
Cc1cn2c(/C=C3/C(=O)Nc4ccc(C(=O)O)cc43)c(C)nc2s1	> 100 µM	> 100 µM			> 100 µM	> 100 µM	> 100 µM	> 100 µM	> 100 µM	> 100 µM	> 100 µM	> 100 µM	> 100 µM	> 100 µM	> 100 µM	> 100 µM	> 100 µM	> 100 µM	> 100 µM	> 100 µM
CCN(CC)CCCNc1c2ccc(Cl)cc2nc2ccc(OC)cc12	1.69 µM	3.31 µM	0.0307 µM	1.64 µM	0.0575 µM	3.69 µM	0.0342 µM	1.93 µM	0.0582 µM	5.83 µM					1.83 µM	3.41 µM	0.0398 µM	2.01 µM		
C=C(C)[C@@H]1CC[C@]2(C(=O)n3ccnc3)CC[C@]3(C)[C@H](CC[C@@H]4[C@@]5(C)CCCNC(C)(C)[C@@H]5CC[C@]43C)[C@@H]12			1.03 µM	2.25 µM	1.7 µM	3.24 µM	1.62 µM	3.05 µM	1.94 µM	3.62 µM	1.75 µM	3.31 µM	2.48 µM	10.1 µM	2.02 µM	4.09 µM	1.52 µM	3.25 µM	1.64 µM	3.2 µM
CC(C)(C)c1cc(C(OCCl)(C(F)(F)F)C(F)(F)F)c2c(c1)C(C(F)(F)F)(C(F)(F)F)OC21c2ccccc2C(=O)c2ccccc21		> 100 µM		> 100 µM		> 100 µM				> 100 µM				> 100 µM		> 100 µM		> 100 µM		> 100 µM
CC1CCC2c3c([nH]c4ccccc34)C3C(=O)N(c4ccccc4)C(=O)C3C2C1 (centres undefined)		91.4 µM		> 250 µM		> 250 µM	153 µM	> 250 µM	> 250 µM	> 250 µM		92 µM	12.1 µM			> 250 µM				> 250 µM
CC(=O)OC1COC(Oc2c(C)c3c4c(c2O)[C@@H](C)CC[C@@H]4[C@@H](C)C[C@H]3C=C(C)C)C(O)C1O (some centres undefined)	47.1 µM	> 100 µM	16.1 µM	41.3 µM	20.8 µM	46.8 µM	19.1 µM	40 µM	16.8 µM	43.7 µM	17.8 µM	34.2 µM					26.4 µM	> 100 µM	15.1 µM	31.3 µM
CN(C)c1ccc2c(c1)OC(N)=C(C#N)C2c1ccc2c(c1)CCCN2C (centres undefined)	1.68 µM	28.6 µM	1.6 µM	14.6 µM			1.97 µM	19.2 µM	2.03 µM	> 100 µM	1.83 µM	54.1 µM	2.27 µM	> 100 µM	10.5 µM	45.1 µM	2.44 µM	6.51 µM		
CCN(CC)Cc1cc(Nc2cc(C(F)(F)F)c(C#N)c3nc4ccccc4n23)ccc1O	1.35 µM	7.81 µM	1.6 µM	4.45 µM			2.33 µM	13.1 µM	3.17 µM	12.5 µM	3.05 µM	11.4 µM	1.41 µM	7.54 µM	1.93 µM	7.86 µM	1.41 µM	3.08 µM	2.85 µM	15.2 µM
CCOC(=O)C1=CSC2=NC3=C(CCC/C3=C\c3cc(OC)c(OC)c(OC)c3)C(c3cc(OC)c(OC)c(OC)c3)N12 (centres undefined)	> 100 µM	> 100 µM									1.43 µM	> 100 µM	3.74 µM	> 100 µM	1.73 µM	> 100 µM	3.05 µM	> 100 µM		
O=C1c2ccccc2-c2c1c1ccc([N+](=O)[O-])cc1c(=O)n2CCCCl	> 100 µM	> 100 µM	3.62 µM	> 100 µM	27.1 µM	> 100 µM	3.24 µM	> 100 µM	> 100 µM	> 100 µM	43.8 µM	> 100 µM			> 100 µM	> 100 µM				
O=C(Nc1cccc(-n2cc(-c3ccncc3)c(-c3ccc(O)c(Cl)c3)n2)c1)Nc1ccc(Cl)c(Cl)c1			1.83 µM	5.33 µM	2.72 µM	> 100 µM	1.38 µM	5.06 µM	1.54 µM	7.27 µM					2.02 µM	5.13 µM	2.5 µM	6.23 µM	3.65 µM	> 100 µM
Cc1c(C)c2ccc(OC(C)C(=O)O)cc2oc1=O (centres undefined)				> 100 µM		> 100 µM		> 100 µM		> 100 µM		> 100 µM		> 100 µM		> 100 µM		> 100 µM		> 100 µM
Nc1c(C(=O)Nc2ccccc2O)[n+]([O-])c2ccccc2[n+]1[O-]		> 100 µM		> 100 µM		> 100 µM				> 100 µM		> 100 µM		> 100 µM		44.6 µM		> 100 µM		
